# Square brackets hold non-standard residues; d marks the D form. Peptide text beside a SMILES is read from it. pGlu = O=C1CC[C@@H](C(=O)O)N1
# Columns and labels:
# REO virus type II = test: Jerne plaque assay (anti-SRBC hemolysis plaques) in new-born NC mice infected with REO virus; format: in vivo, mouse; details: for PFC/10^6 spleen cells (number of hemolysis plaques): measured 4 days later; for therapeutic effect on immune inhibition (in words): administered together with SRBC to infected NC mice, LPS 5 μg/mouse, MDP 20 μg/mouse
# Method: Two weeks after the infection of 10^5 PFU REO virus, sheep red blood cells (referred to hereinafter simply as SRBC) was intraperitoneally administered and 4 days after the administration, the number of hemolysis plaques was measured by way of Jerne plaque assay as a production amount of antibody-forming cells against SRBC. The number of hemolysis plaques was 15±2 per 10^6 spleen cells in a group not infected with REO virus, while that was 2.8±1.6 in an infected group, thus showing a remarkable immunity inhibitory state. In compliance with this, atrophy of thymus and decrease in the number of thymic cortex lymphocytes were observed.
# On the other hand, the effective ingredient of this invention dissolved in physiological saline was administered in an amount of 10 μg/mouse simultaneously with SRBC to mice, and 4 days after the administration, the number of hemolysis plaques was measured whereupon the number was 22±5. […] In a group to which muramyl dipeptide was administered in an amount of 20 μg/mouse together with Freund incomplete adjuvant, the number of hemolysis plaques was 11±2.
# Next, recovery of the immune function by immunity-enhancing substance was examined, using new-born mice infected with REO virus type II. Two weeks after the infection of the mice with the virus, sheep red blood cells were administered to the mice, and 4 days after the administration, Jerne plaque assay was carried out to measure the number of hemolysis plaques. The number was 15±2 in a group of the mice not infected and was 2.8±1.6 in a group of the infected mice. […] This recovery of the function of immune inhibition is tabulated as follows:
# Mice infected with virus was immunized at the same time with SRBC and an immunostimulant, and 4 days after the immunization, the number of hemolysis plaques was measured by Jerne plaque assay.
# After mice being infected with REO virus, 10 μg 1 μg or 0.1 μg of FTS was administered to the mice. After 18 days, inhibition of immunity and recovery of its function were observed by way of Jerne plaque assay.
# Virus: REO virus type II, innoculation 1×10^5 PFU/mouse
# [1] = Toxicity test, repeated subcutaneous administration to rats; format: in vivo, rat; details: 30 mg/kg subcutaneously for consecutive 21 days
# Source text: (§1) Thus, the medicament of the present invention is a safe medicament of extremely low toxicity and can be administered for a long period of time.
# [2] = Toxicity test, repeated subcutaneous administration to mice; format: in vivo, mouse
# Source text: as §1
Molecule,PFC/10^6 spleen cells (number of hemolysis plaques) (REO virus type II; MDP 20 μg/mouse with Freund incomplete adjuvant and SRBC 2 weeks after 10^5 PFU REO virus) [PFC/10^6 spleen cells],"PFC/10^6 spleen cells (number of hemolysis plaques) (REO virus type II; MDP 20 μg/mouse with Freund incomplete adjuvant and SRBC 2 weeks after 10^5 PFU REO virus, listed as muramyl dipeptide) [PFC/10^6 spleen cells]",therapeutic effect on immune inhibition (in words) (REO virus type II),PFC/10^6 spleen cells (number of hemolysis plaques) (REO virus type II; LPS 5 μg/mouse with SRBC 2 weeks after 10^5 PFU REO virus) [PFC/10^6 spleen cells],"PFC/10^6 spleen cells (number of hemolysis plaques) (REO virus type II; LPS 5 μg/mouse with SRBC 2 weeks after 10^5 PFU REO virus, listed as lipopolysaccharide (LPS)) [PFC/10^6 spleen cells]","abnormal symptom in external behavior observation, biochemical diagnosis of sera and pathological anatomy ([1]; rats)",toxicity ([1]; wister rats of 5 weeks old),"toxicity ([2]; 50 mg/kg and 100 mg/kg subcutaneously for consecutive 14 days, ddy male mice of 5 weeks old)","abnormal symptom by external check ([2]; 100 mg/kg subcutaneously every day for consecutive 14 days, mice)"
"CC(=O)N[C@H]1C(O)O[C@H](CO)[C@@H](O)[C@@H]1O[C@H](C)C(=O)N[C@@H](C)C(=O)N[C@H](CCC(=O)O)C(N)=O (mixture of isomers) [MDP, muramyl dipeptide]",11 ± 2,11±2,showing a therapeutic effect,,,,,,
lipopolysaccharide [LPS],,,no therapeutic effect,0.3 ± 0.4,0.3±0.4,,,,
"C[C@H](NC(=O)[C@@H]1CCC(=O)N1)C(=O)N[C@@H](CCCCN)C(=O)N[C@@H](CO)C(=O)N[C@@H](CCC(N)=O)C(=O)NCC(=O)NCC(=O)N[C@@H](CO)C(=O)N[C@@H](CC(N)=O)C(=O)O [FTS, pGlu-Ala-Lys-Ser-Gln-Gly-Gly-Ser-Asn] ([pGlu]AKSQGGSN-OH)",,,,,,no abnormal symptom was found,No toxicity was observed,No toxicity was observed,no abnormal symptom was found

# Source: patent US5352665A, “Method of treating disease caused by the infection of virus” (Mitsui Toatsu Chemicals, Incorporated, priority 1987, dated 1994)
